Experimental data as given in US20260240976A1, “T[…] VACCINES BASED ON VALIDATED TARGET EPITOPES” (Deutsches Krebsforschungszentrum Stiftung des öffentlichen …, priority 2023, published 2026).

Tests used:
[1] = system: short-term antigen-specific T cell lines generated from PBMCs; assay: Interferon-γ ELISpot assay on short-term antigen-specific T cell lines; assay type: cell-based, human; settings: for rates of immunoactivation in PBMC samples, CD8 T cell responses and/or numbers of HPV16 positive cell lines presenting the peptide as HLA-complexes: comparison among the peptides in Table 1
[2] = system: peptide-specific T cell cultures; assay: T cell phenotyping and intracellular cytokine staining (IFN-gamma, TNF-alpha); assay type: cell-based, human; parameters: key: +: cytokine: Immunogenicity of the peptide shown by intracellular cytokine staining (IFN-gamma, TNF-alpha); +*: *highlights data from published resources.; *highlights data from published resources
Procedure: To characterize and quantify the responsive cells upon peptide stimulation, the peptide-specific T cell cultures with positive ELISpot results were further analyzed with T cell phenotyping and intracellular cytokine staining (ICS) assessed by flow cytometry.
The cells of the respective continued short-term T cell culture as well as the DMSO-stimulated and an unresponsive T cell line were harvested into 2 mL reaction tubes and centrifuged at 400×g for 10 min. The supernatant was discarded and the pellet of the unresponsive T cell line was resuspended in 100 μL ELISpot medium and used as unstimulated and unstained control. The pellets of the responsive and the DMSO-stimulated T cell lines were resuspended in 200 μL ELISpot medium and split equally into two wells of a V-bottom 96-well plate. One well of the responsive T cell lines was re-stimulated with 10 μg/mL of its specific peptide while the other well was mock stimulated with 0.1% (v/v) DMSO. As positive control, one well of the DMSO-stimulated T cell line was activated by treatment with 20 ng/ml Phorbol 12-myristate 13-acetate and 1 μM lonomycin. Then, 1:10 diluted GolgiStop (containing monensin) and 1:15 diluted GolgiPlug (containing brefeldin A) were added to all wells to inhibit intracellular transport processes. Monensin inhibits the trans-Golgi transport, while brefeldin A inhibits transport between the ER and the Golgi (Chardin and McCormick, 1999; Mollenhauer et al., 1990). The stimulated cells were incubated for 5 h at standard culture conditions.
After incubation, the cells were resuspended, centrifuged at 400×g for 5 min and the supernatant was discarded. Then, the cells were resuspended in 50 μL cold staining buffer (unstained) or 50 μL cold staining buffer containing the phenotyping antibodies against CD3, CD4, CD8 and the LIVE/DEAD™ Fixable Near-IR Dead Cell Stain (unstimulated and stimulated) and incubated at 4° C. for 30 min. After the surface staining, the cells were washed twice with 200 μL staining buffer and centrifugation at 1400 rpm, followed by fixation with 1% paraformaldehyde (PFA) solution for 15 min at 4° C. All following centrifugation steps were carried out at 1400 rpm for 5 min. After fixation, the cells were again washed twice with 200 μL cold staining buffer and were then resuspended in 100 μL 1× perm/wash buffer diluted in PBS (provided is 10×) for 15 min at 4° C. for cell membrane permeabilization. Subsequently, the plate was centrifuged and the supernatant was discarded. The cells were resuspended in 50 μL perm/wash buffer diluted in PBS (unstained) or 50 μL perm/wash buffer containing the intracellular cytokine antibodies against IFNγ, TNFα and granzyme B (unstimulated and stimulated) for 30 min at 4° C. After intracellular cytokine staining, the cells were washed twice with 200 μL 1× perm/wash buffer. Then 100 μL fix/perm solution (provided in the BD Cytofix/Cytoperm kit) were added per well. After 20 min of incubation at 4° C., the cells of each well were washed twice with 200 μL 1× perm/wash buffer before being resuspended in 100 μL staining buffer and stored at 4° C. overnight.
OneComp eBeads™ (eBeads) and ArC™ Amine Reactive Compensation beads (ArC beads) were stained as compensation controls. For each antibody, 50 μL of the eBeads suspension were stained with the same dilution as used for staining the cells. The ArC beads were stained with 1 μL LIVE/DEAD™ Fixable Near-IR Dead Cell Stain stock solution in 50 μL staining buffer. The beads were incubated at 4° C. for 30 min and were then washed two times with 1 mL staining buffer and centrifugation at 400×g. Finally, the stained beads were resuspended in 400 μL staining buffer, one drop of ArC™ negative beads was added to the labelled ArC beads, and all beads were stored at 4° C. overnight.
On the next day, the samples and the single stained compensation controls were acquired at a BD FACS Canto™ II analyzer using the BD FACS Diva Software Version 6. […]

92 (HYCYSLYGTTL; Human papillomavirus 16) [compound 92]
ELISpot: Immungenicity of the peptide shown by IFN-gamma ELISPOT analysis ([1]; HLA restriction A24): + | cytokine: Immunogenicity of the peptide shown by intracellular cytokine staining (IFN-gamma, TNF-alpha) ([2]; HLA restriction A24): +

102 (EPDRAHYNIV; Human papillomavirus 16) [compound 102]
ELISpot: Immungenicity of the peptide shown by IFN-gamma ELISPOT analysis ([1]; HLA restriction B07): + | cytokine: Immunogenicity of the peptide shown by intracellular cytokine staining (IFN-gamma, TNF-alpha) ([2]; HLA restriction B07): +

60 (AFRDLCIVYR; Human papillomavirus 16) [compound 60]
ELISpot: Immungenicity of the peptide shown by IFN-gamma ELISPOT analysis ([1]; HLA restriction A11): + | cytokine: Immunogenicity of the peptide shown by intracellular cytokine staining (IFN-gamma, TNF-alpha) ([2]; HLA restriction A11): +

4 (YGVCDKCLKFY; Human papillomavirus 16) [compound 4]
ELISpot: Immungenicity of the peptide shown by IFN-gamma ELISPOT analysis ([1]; HLA restriction A01): + | cytokine: Immunogenicity of the peptide shown by intracellular cytokine staining (IFN-gamma, TNF-alpha) ([2]; HLA restriction A01): +

66 (GIVCPICSQK; Human papillomavirus 16) [compound 66]
ELISpot: Immungenicity of the peptide shown by IFN-gamma ELISPOT analysis ([1]; HLA restriction A03): + | cytokine: Immunogenicity of the peptide shown by intracellular cytokine staining (IFN-gamma, TNF-alpha) ([2]; HLA restriction A03): +

7 (TTDLYCYEQ; Human papillomavirus 16) [compound 7]
ELISpot: Immungenicity of the peptide shown by IFN-gamma ELISPOT analysis ([1]; HLA restriction A01): + | cytokine: Immunogenicity of the peptide shown by intracellular cytokine staining (IFN-gamma, TNF-alpha) ([2]; HLA restriction A01): +

97 (RPRKLPQL; Human papillomavirus 16) [compound 97]
ELISpot: Immungenicity of the peptide shown by IFN-gamma ELISPOT analysis ([1]; HLA restriction B07): + | rates of immunoactivation in PBMC samples, CD8 T cell responses and/or numbers of HPV16 positive cell lines presenting the peptide as HLA-complexes [1]: highest rates of immunoactivation in PBMC samples, to induce the strongest CD8 T cell responses, and/or shown to be presented as HLA-complexes by the highest numbers of HPV16 positive cell lines | cytokine: Immunogenicity of the peptide shown by intracellular cytokine staining (IFN-gamma, TNF-alpha) ([2]; HLA restriction B07): +

3 (TIHDIILQCVY; Human papillomavirus 16) [compound 3]
ELISpot: Immungenicity of the peptide shown by IFN-gamma ELISPOT analysis ([1]; HLA restriction A01): + | cytokine: Immunogenicity of the peptide shown by intracellular cytokine staining (IFN-gamma, TNF-alpha) ([2]; HLA restriction A01): +

108 (AFRDLCIVY; Human papillomavirus 16) [compound 108]
ELISpot: Immungenicity of the peptide shown by IFN-gamma ELISPOT analysis ([1]; HLA restriction B15): + | rates of immunoactivation in PBMC samples, CD8 T cell responses and/or numbers of HPV16 positive cell lines presenting the peptide as HLA-complexes [1]: highest rates of immunoactivation in PBMC samples, to induce the strongest CD8 T cell responses, and/or shown to be presented as HLA-complexes by the highest numbers of HPV16 positive cell lines | cytokine: Immunogenicity of the peptide shown by intracellular cytokine staining (IFN-gamma, TNF-alpha) ([2]; HLA restriction B15): +

84 (PYAVCDKCLKF; Human papillomavirus 16) [compound 84]
ELISpot: Immungenicity of the peptide shown by IFN-gamma ELISPOT analysis ([1]; HLA restriction A24): + | cytokine: Immunogenicity of the peptide shown by intracellular cytokine staining (IFN-gamma, TNF-alpha) ([2]; HLA restriction A24): +

141 (RPRKLPDLCT; Human papillomavirus 16) [compound 141]
ELISpot: Immungenicity of the peptide shown by IFN-gamma ELISPOT analysis ([1]; HLA restriction B07): + | cytokine: Immunogenicity of the peptide shown by intracellular cytokine staining (IFN-gamma, TNF-alpha) ([2]; HLA restriction B07): +

87 (PDRAHYNIVTF; Human papillomavirus 16) [compound 87]
ELISpot: Immungenicity of the peptide shown by IFN-gamma ELISPOT analysis ([1]; HLA restriction A24): + | cytokine: Immunogenicity of the peptide shown by intracellular cytokine staining (IFN-gamma, TNF-alpha) ([2]; HLA restriction A24): +

64 (AVCDKCLKFYS; Human papillomavirus 16) [compound 64]
ELISpot: Immungenicity of the peptide shown by IFN-gamma ELISPOT analysis ([1]; HLA restriction A11): + | cytokine: Immunogenicity of the peptide shown by intracellular cytokine staining (IFN-gamma, TNF-alpha) ([2]; HLA restriction A11): +

59 (FAFRDLCIVYR; Human papillomavirus 16) [compound 59]
ELISpot: Immungenicity of the peptide shown by IFN-gamma ELISPOT analysis ([1]; HLA restriction A11): + | cytokine: Immunogenicity of the peptide shown by intracellular cytokine staining (IFN-gamma, TNF-alpha) ([2]; HLA restriction A11): +

61 (IVYRDGNPY; Human papillomavirus 16) [compound 61]
ELISpot: Immungenicity of the peptide shown by IFN-gamma ELISPOT analysis ([1]; HLA restriction A03): + | ELISpot: Immungenicity of the peptide shown by IFN-gamma ELISPOT analysis ([1]; HLA restriction A11): + | cytokine: Immunogenicity of the peptide shown by intracellular cytokine staining (IFN-gamma, TNF-alpha) ([2]; HLA restriction A03): + | cytokine: Immunogenicity of the peptide shown by intracellular cytokine staining (IFN-gamma, TNF-alpha) ([2]; HLA restriction A11): +
